Data reported in ChEMBL document CHEMBL4627328, “Synthesis and in vitro evaluation of antimycobacterial and cytotoxic activity of new α,β-unsaturated amide, oxazoline and oxazole derivatives from l-serine” (Bioorg Med Chem Lett, 2020).
Converted amounts (≈) assume the structure as drawn.

Assays:
[1] = tested on: Mycobacterium tuberculosis; assay: Antimycobacterial activity against Mycobacterium tuberculosis H37Rv ATCC 27294 incubated for 5 days by alamar blue based colorimetric assay; type: functional; conditions: H37Rv ATCC 27294, 120 h
[2] = Cytotoxicity against monkey Vero cells assessed as cell viability at 50 ug/ml by WST-1 assay relative to control; type: cell-based; conditions: chlorocebus sabaeus, read-out: Activity
[3] = Cytotoxicity against monkey Vero cells assessed as cell viability at 100 ug/ml by WST-1 assay relative to control; type: cell-based; conditions: chlorocebus sabaeus, read-out: Activity

With `COC(=O)[C@H](COC(=O)/C=C/c1ccc(F)cc1)NC(=O)/C=C/c1ccc(F)cc1` the MIC [1] was 120 µM (≈ 50 µg/mL), the viability at 50 ug/ml [2] was 21.1% and the viability at 100 ug/ml [3] was 8.65%.
With `Cc1ccc(/C=C/C(=O)O/C(=N/C2CCCCC2)NC2CCCCC2)cc1` the MIC [1] was greater than 271 µM, the viability at 50 ug/ml [2] was 79.3% and the viability at 100 ug/ml [3] was 95.5%.
In the case of `COC(=O)[C@H](CO)NC(=O)/C=C/c1ccc(F)cc1`, the MIC [1] is reported as greater than 374 µM.
Work on `O=C(/C=C/c1ccccc1)O/C(=N/C1CCCCC1)NC1CCCCC1` yielded an MIC [1] greater than 282 µM, a viability at 50 ug/ml [2] of 83.9% and a viability at 100 ug/ml [3] of 83.8%.
With `CC[C@@H](CO)NCCN[C@@H](CC)CO` [ETHAMBUTOL] the MIC [1] was 15.2 µM (≈ 3.11 µg/mL).
Molecule `COC(=O)[C@H](COC(=O)/C=C/c1ccccc1)NC(=O)/C=C/c1ccccc1` has an MIC [1] greater than 264 µM, a viability at 50 ug/ml [2] of 16.8% and a viability at 100 ug/ml [3] of 10.7%.
Work on `C[C@H]1COc2c(N3CCN(C)CC3)c(F)cc3c(=O)c(C(=O)O)cn1c23` [LEVOFLOXACIN] yielded an MIC [1] of 0.54 µM (≈ 0.195 µg/mL).
Molecule `COC(=O)c1coc(/C=C/c2ccc(C)cc2)n1` has an MIC [1] of 3.21 µM (≈ 0.781 µg/mL), a viability at 50 ug/ml [2] of 102% and a viability at 100 ug/ml [3] of 100%.
Work on `COC(=O)[C@@H]1COC(/C=C/c2ccc(C)cc2)=N1` yielded an MIC [1] of 25.4 µM (≈ 6.23 µg/mL), a viability at 50 ug/ml [2] of 85.1% and a viability at 100 ug/ml [3] of 17%.
In the case of `COC(=O)[C@H](COC(=O)/C=C/c1ccc(OC)cc1)NC(=O)/C=C/c1ccc(OC)cc1`, the MIC [1] is reported as 114 µM (≈ 50 µg/mL), the viability at 50 ug/ml [2] is reported as 39.1% and the viability at 100 ug/ml [3] is reported as 11.4%.
For `CO[C@H]1/C=C/O[C@@]2(C)Oc3c(C)c(O)c4c(O)c(c(/C=N/N5CCN(C)CC5)c(O)c4c3C2=O)NC(=O)/C(C)=C\C=C\[C@H](C)[C@H](O)[C@@H](C)[C@@H](O)[C@@H](C)[C@H](OC(C)=O)[C@@H]1C` [RIFAMPIN], the MIC [1] was 0.06 µM (≈ 0.0494 µg/mL).
In the case of `COC(=O)[C@@H]1COC(/C=C/c2ccc(F)cc2)=N1`, the MIC [1] is reported as 50.1 µM (≈ 12.5 µg/mL), the viability at 50 ug/ml [2] is reported as 91.6% and the viability at 100 ug/ml [3] is reported as 18.6%.
`COC(=O)[C@H](COC(=O)/C=C/c1ccc(C)cc1)NC(=O)/C=C/c1ccc(C)cc1` gave an MIC [1] of 123 µM (≈ 50 µg/mL), a viability at 50 ug/ml [2] of 28.8% and a viability at 100 ug/ml [3] of 18.7%.
With `COC(=O)[C@H](CO)NC(=O)/C=C/c1ccc(C)cc1` the MIC [1] was greater than 380 µM, the viability at 50 ug/ml [2] was 100% and the viability at 100 ug/ml [3] was 101%.
`COC(=O)c1coc(/C=C/c2ccccc2)n1` showed an MIC [1] of 54.5 µM (≈ 12.5 µg/mL), a viability at 50 ug/ml [2] of 99.6% and a viability at 100 ug/ml [3] of 102%.
`COC(=O)c1coc(/C=C/c2ccc(OC)cc2)n1` gave an MIC [1] of 24.1 µM (≈ 6.25 µg/mL), a viability at 50 ug/ml [2] of 99.6% and a viability at 100 ug/ml [3] of 96.8%.
In the case of `COC(=O)[C@H](CO)NC(=O)/C=C/c1ccc(OC)cc1`, the MIC [1] is reported as greater than 358 µM, the viability at 50 ug/ml [2] is reported as 100% and the viability at 100 ug/ml [3] is reported as 103%.
Work on `COC(=O)[C@@H]1COC(/C=C/c2ccccc2)=N1` yielded an MIC [1] of 54.1 µM (≈ 12.5 µg/mL), a viability at 50 ug/ml [2] of 68.6% and a viability at 100 ug/ml [3] of 12.4%.
Work on `O=C(/C=C/c1ccc(F)cc1)O/C(=N/C1CCCCC1)NC1CCCCC1` yielded an MIC [1] greater than 268 µM, a viability at 50 ug/ml [2] of 82.5% and a viability at 100 ug/ml [3] of 85.5%.
For `COC(=O)[C@H](CO)NC(=O)/C=C/c1ccccc1`, the MIC [1] was greater than 401 µM, the viability at 50 ug/ml [2] was 97.1% and the viability at 100 ug/ml [3] was 99.4%.
Molecule `COC(=O)[C@@H]1COC(/C=C/c2ccc(OC)cc2)=N1` has an MIC [1] of 23.9 µM (≈ 6.24 µg/mL), a viability at 50 ug/ml [2] of 94.8% and a viability at 100 ug/ml [3] of 20.9%.
Molecule `COC(=O)c1coc(/C=C/c2ccc(F)cc2)n1` has an MIC [1] of 12.6 µM (≈ 3.12 µg/mL), a viability at 50 ug/ml [2] of 102% and a viability at 100 ug/ml [3] of 99%.
